The structures appear in SMILES notation.

A short description of the data set: physchem.
Description: Dissociation constant, pKa of the compound by UV spectrophotometric analysis
The term pKa denotes the negative logarithm of the acid dissociation constant. The low end stands for a stronger acid or weaker base, the high end for a weaker acid or stronger base. Consider `CCCS(=O)(=O)Nc1ccc(Nc2c3ccccc3nc3ccccc23)c(OC)c1`, for which the pKa is 7.41.

`CCS(=O)(=O)Nc1ccc(Nc2c3ccccc3nc3ccccc23)c(OC)c1`: the pKa was found to be 7.4. The molecule `CCCCS(=O)(=O)Nc1ccc(Nc2c3ccccc3nc3ccccc23)c(OC)c1` returned a pKa of 7.41. Then `CCS(=O)(=O)Nc1ccc(Nc2c3ccccc3nc3ccccc23)cc1`, with 7.19; and `CCCS(=O)(=O)Nc1ccc(Nc2c3ccccc3nc3ccccc23)cc1`, with 7.2; and `CCCCS(=O)(=O)Nc1ccc(Nc2c3ccccc3nc3ccccc23)cc1`, with 7.18. With `CCCCCS(=O)(=O)Nc1ccc(Nc2c3ccccc3nc3ccccc23)cc1`, the pKa came out at 7.19. With `CCCCCCS(=O)(=O)Nc1ccc(Nc2c3ccccc3nc3ccccc23)cc1`, the pKa was found to be 7.17. This pKa and that of the molecule before are within 0.2 log units of each other. The figure for `CCS(=O)(=O)Nc1ccc(Nc2c3ccccc3nc3cc(NC(C)=O)ccc23)cc1` is 7.35; for `CCCS(=O)(=O)Nc1ccc(Nc2c3ccccc3nc3cc(NC(C)=O)ccc23)cc1` it is 7.33; for `CCCCS(=O)(=O)Nc1ccc(Nc2c3ccccc3nc3cc(NC(C)=O)ccc23)cc1` it is 7.32. As for `CCCCCS(=O)(=O)Nc1ccc(Nc2c3ccccc3nc3cc(NC(C)=O)ccc23)cc1`, the pKa was 7.35. This pKa and that of the molecule before are within 0.2 log units of each other. With `CCCCCCS(=O)(=O)Nc1ccc(Nc2c3ccccc3nc3cc(NC(C)=O)ccc23)cc1`, the pKa was determined as 7.34. `COc1cc(NS(C)(=O)=O)ccc1Nc1c2ccccc2nc2ccccc12`: the pKa amounted to 7.34. As to `CCCCCS(=O)(=O)Nc1ccc(Nc2c3ccccc3nc3ccccc23)c(OC)c1`, the pKa is 7.39.

The molecule `CCCCCCS(=O)(=O)Nc1ccc(Nc2c3ccccc3nc3ccccc23)c(OC)c1` showed a pKa of 7.42. Turning to `COc1cc(NS(C)(=O)=O)ccc1Nc1c2ccccc2nc2c(C(N)=O)cccc12`, the pKa was determined as 6.37. `CCS(=O)(=O)Nc1ccc(Nc2c3ccccc3nc3c(C(N)=O)cccc23)c(OC)c1` registered a pKa of 6.35.

Molecule `CCCS(=O)(=O)Nc1ccc(Nc2c3ccccc3nc3c(C(N)=O)cccc23)c(OC)c1` displayed a pKa of 6.35.

In the case of `CCCCS(=O)(=O)Nc1ccc(Nc2c3ccccc3nc3c(C(N)=O)cccc23)c(OC)c1`, the pKa was 6.34. Regarding `CCCCCS(=O)(=O)Nc1ccc(Nc2c3ccccc3nc3c(C(N)=O)cccc23)c(OC)c1`, the pKa stood at 6.36. In turn, `NC(=O)CCCCc1ccc(Nc2c3ccccc3nc3ccccc23)cc1` returned a pKa of 7.7. The molecule `NC(=O)CCCCCc1ccc(Nc2c3ccccc3nc3ccccc23)cc1` came in with a pKa of 7.7. In turn, `NC(=O)CCCCCCCc1ccc(Nc2c3ccccc3nc3ccccc23)cc1` registered a pKa of 7.7.

Take `NC(=O)CCCCCCCCc1ccc(Nc2c3ccccc3nc3ccccc23)cc1`: the pKa is 7.7. `NC(=O)CCCc1ccc(Nc2c3ccccc3nc3ccccc23)cc1` returned a pKa of 7.67. The molecule `NC(=O)CCCCCCc1ccc(Nc2c3ccccc3nc3ccccc23)cc1` yielded a pKa of 7.7. Regarding `CCCCCCCS(=O)(=O)Nc1ccc(Nc2c3ccccc3nc3ccccc23)c(OC)c1`, the pKa turned out to be 7.42. Then `CCCCCCCCS(=O)(=O)Nc1ccc(Nc2c3ccccc3nc3ccccc23)c(OC)c1`, with 7.44; and `COc1cc(NS(C)(=O)=O)ccc1Nc1c2ccccc2nc2cc(NC(C)=O)ccc12`, with 7.56.

Regarding `CCS(=O)(=O)Nc1ccc(Nc2c3ccccc3nc3cc(NC(C)=O)ccc23)c(OC)c1`, the pKa was determined as 7.54. As for `CCCS(=O)(=O)Nc1ccc(Nc2c3ccccc3nc3cc(NC(C)=O)ccc23)c(OC)c1`, the pKa amounted to 7.57. On to `CCCCS(=O)(=O)Nc1ccc(Nc2c3ccccc3nc3cc(NC(C)=O)ccc23)c(OC)c1`, for which the pKa was 7.56. `CCCCCS(=O)(=O)Nc1ccc(Nc2c3ccccc3nc3cc(NC(C)=O)ccc23)c(OC)c1` came in with a pKa of 7.54. `CCCCCCS(=O)(=O)Nc1ccc(Nc2c3ccccc3nc3cc(NC(C)=O)ccc23)c(OC)c1` displayed a pKa of 7.54.

The molecule `CCCCCCCS(=O)(=O)Nc1ccc(Nc2c3ccccc3nc3cc(NC(C)=O)ccc23)c(OC)c1` showed a pKa of 7.55. Then `COc1ccc2c(Nc3ccc(NS(C)(=O)=O)cc3OC)c3ccccc3nc2c1`, with 7.39; and `CCS(=O)(=O)Nc1ccc(Nc2c3ccccc3nc3cc(OC)ccc23)c(OC)c1`, with 7.36; and `CCCS(=O)(=O)Nc1ccc(Nc2c3ccccc3nc3cc(OC)ccc23)c(OC)c1`, with 7.38.

As to `CCCCS(=O)(=O)Nc1ccc(Nc2c3ccccc3nc3cc(OC)ccc23)c(OC)c1`, the pKa came out at 7.35.

`CCOc1ccc2c(Nc3ccc(NS(C)(=O)=O)cc3OC)c3ccccc3nc2c1` had a pKa of 7.37. Then `CCCOc1ccc2c(Nc3ccc(NS(C)(=O)=O)cc3OC)c3ccccc3nc2c1`, with 7.36; and `CCCCOc1ccc2c(Nc3ccc(NS(C)(=O)=O)cc3OC)c3ccccc3nc2c1`, with 7.34; and `COc1cc(NS(C)(=O)=O)ccc1Nc1c2ccccc2nc2cc(OCCO)ccc12`, with 7.36. The figure for `COc1cc(NS(C)(=O)=O)ccc1Nc1c2ccccc2nc2cc(OCC(O)CO)ccc12` (stereo unspecified) is 7.

The molecule `CNC(=O)COc1ccc2c(Nc3ccc(NS(C)(=O)=O)cc3OC)c3ccccc3nc2c1` yielded a pKa of 7.35. On to `COc1cc(NS(C)(=O)=O)ccc1Nc1c2ccccc2nc2cc(OCCCC(N)=O)ccc12`, for which the pKa was found to be 7.36. On to `COc1cc(NS(C)(=O)=O)ccc1Nc1c2ccccc2nc2ncccc12`, for which the pKa turned out to be 6.09. Take `CCS(=O)(=O)Nc1ccc(Nc2c3ccccc3nc3ncccc23)c(OC)c1`: the pKa stood at 6.07. `CCCS(=O)(=O)Nc1ccc(Nc2c3ccccc3nc3ncccc23)c(OC)c1` registered a pKa of 6.04. In turn, `CCCCS(=O)(=O)Nc1ccc(Nc2c3ccccc3nc3ncccc23)c(OC)c1` gave a pKa of 6.06. In turn, `CCCCCS(=O)(=O)Nc1ccc(Nc2c3ccccc3nc3ncccc23)c(OC)c1` registered a pKa of 6.05. For `CCCCCCS(=O)(=O)Nc1ccc(Nc2c3ccccc3nc3ncccc23)c(OC)c1`, the pKa was found to be 6.03. Molecule `CCCCCCCS(=O)(=O)Nc1ccc(Nc2c3ccccc3nc3ncccc23)c(OC)c1` came in with a pKa of 6.04. Then `COc1cc(NS(C)(=O)=O)ccc1Nc1c2ccccc2nc2cc([N+](=O)[O-])ccc12`, with 5.72; and `CCS(=O)(=O)Nc1ccc(Nc2c3ccccc3nc3cc([N+](=O)[O-])ccc23)c(OC)c1`, with 5.7. `CCCS(=O)(=O)Nc1ccc(Nc2c3ccccc3nc3cc([N+](=O)[O-])ccc23)c(OC)c1` came in with a pKa of 5.69.

`CCCCS(=O)(=O)Nc1ccc(Nc2c3ccccc3nc3cc([N+](=O)[O-])ccc23)c(OC)c1`: the pKa turned out to be 5.71.

`CCCCCS(=O)(=O)Nc1ccc(Nc2c3ccccc3nc3cc([N+](=O)[O-])ccc23)c(OC)c1` yielded a pKa of 5.69. The pKa values of the last two molecules are within 0.2 log units of each other.

As to `CCCCCCS(=O)(=O)Nc1ccc(Nc2c3ccccc3nc3cc([N+](=O)[O-])ccc23)c(OC)c1`, the pKa was 5.7. As for `CCCCCCCS(=O)(=O)Nc1ccc(Nc2c3ccccc3nc3cc([N+](=O)[O-])ccc23)c(OC)c1`, the pKa was 5.69. `CCCCCCS(=O)(=O)Nc1ccc(Nc2c3ccccc3nc3c(C(N)=O)cccc23)c(OC)c1` displayed a pKa of 6.33. Then `CCCCCCCS(=O)(=O)Nc1ccc(Nc2c3ccccc3nc3c(C(N)=O)cccc23)c(OC)c1`, with 6.33; and `CCCCNC(=O)c1cccc2c(Nc3ccc(NS(C)(=O)=O)cc3OC)c3ccccc3nc12`, with 6.36. The figure for `CCCCNC(=O)c1cccc2c(Nc3ccc(NS(=O)(=O)CCC)cc3OC)c3ccccc3nc12` is 6.35; for `CCCCCS(=O)(=O)Nc1ccc(Nc2c3ccccc3nc3c(C(=O)NCCCC)cccc23)c(OC)c1` it is 6.36. Regarding `CNC(=O)c1cccc2c(Nc3ccc(NS(C)(=O)=O)cc3OC)c3ccccc3nc12`, the pKa was found to be 6.36. In the case of `COc1cc(NS(C)(=O)=O)ccc1Nc1c2ccccc2nc2c(C(=O)N(C)C)cccc12`, the pKa was 6.16. The figure for `COc1cc(NS(C)(=O)=O)ccc1Nc1c2ccccc2nc2c(C(=O)NCC(N)=O)cccc12` is 6.18; for `CNC(=O)CNC(=O)c1cccc2c(Nc3ccc(NS(C)(=O)=O)cc3OC)c3ccccc3nc12` it is 6.2; for `COc1cc(NS(C)(=O)=O)ccc1Nc1c2ccccc2nc2c(C(=O)NCC(O)CO)cccc12` (stereo unspecified) it is 6.34.
